Values quoted from earlier work as cited in PMC10712729, “A Phase I Trial of the Dual MET Kinase/OCT-2 Inhibitor OMO-1 in Metastatic Solid Malignancies Including MET Exon 14 Mutated Lung Cancer” (The Oncologist, 2023).

Columns and labels:
[1] = in vivo; cited from earlier work
[2] = parameters: method as in PMID 32469185, PMID 32877583; settings: cited from earlier work
METex14 mutated NSCLC = test system: METex14 mutated NSCLC; parameters: method as in PMID 32469185, PMID 32877583; settings: METex14 mutated NSCLC ref 9, 10; cited from earlier work

Row | SMILES | renal toxicity [1] | diarrhea, all grades [2] | nausea, all grades [2] | vomiting, all grades [2] | median response duration (METex14 mutated NSCLC) | object response rates (METex14 mutated NSCLC)
1 | Cn1cc(-c2ccc3nnc(C(F)(F)c4ccc5ncccc5c4)n3n2)cn1 [JNJ-38877605] | renal toxic properties | – | – | – | – | –
2 | CNC(=O)c1ccc(-c2cnc3ncc(Cc4ccc5ncccc5c4)n3n2)cc1F [capmatinib] | – | 17% | 46% | 26% | 12.6 months | 68%
3 | CN1CCC(COc2cnc(-c3cccc(Cn4nc(-c5cccc(C#N)c5)ccc4=O)c3)nc2)CC1 [tepotinib] | – | 22% | 26% | 6% | 10.8 months | 43%
